Data from patent US10555536B2, “Crop fortification, nutrition and crop protection composition” (priority 2017, dated 2020).

Tested on: Groundnut
Assay: Field trial on groundnut, protein content of seeds
Set-up: species or system Groundnut GG-2 variety
Conditions: in vivo
Text: Field Trial Study of Treatments with Spirulina Compositions on Groundnut by Soil Drenching. Trials were laid in Ishvarpura (Idar) village, Dist.-Sabarkantha, Gujarat, India, to evaluate various compositions for treatment of Groundnut GG-2 variety. The plot size was 3828 m2. All the recommended agronomic practices were followed. All the treatments were applied by Soil drenching. Also, no urea or any other chemical fertilizer was applied in the trial and in the previous crop. Thus, the parts where compositions of the present invention were applied were free of chemical nutrient for over a year.

SMILES: NC(N)=O [Urea]
- Protein content of Groundnut Seeds %: 48.884%
